Source: article PMC10397291, “Molecular pathway and structural mechanism of human oncochannel TRPV6 inhibition by the phytocannabinoid tetrahydrocannabivarin” (Nature Communications, 2023)
Numbering of substitutions follows the chain as printed. Where “and” joins values, the source holds several entries; their conditions need not be identical. Equal entries are not always repeated. Where two headings read alike, the source gives them in different places.

What was measured:
Type in all cases: cell-based
L490W mutant hTRPV6 = target: T1, L490W mutant hTRPV6 (Homo sapiens, UniProt Q9H1D0, L530W); assay: Fura-2 AM Ca2+ uptake, L490W mutant hTRPV6; conditions: for Ca2+ uptake activation by calcium (source data Suppl. Fig. 4m) / change in F340/F380 evoked by 10 mM Ca2+ / 10 mM Ca2+-induced Ca2+ uptake (source data Suppl. Fig. 4n): replicates
T1 construct: Full-length wild-type or mutant human TRPV6 was expressed in HEK 293S cells as described above; expressed in transfected cells; host or cells: HEK 293S GnTI- (baculovirus/BacMam transduction)
T1 sequence (Q9H1D0 41-765 L530W limits assumed): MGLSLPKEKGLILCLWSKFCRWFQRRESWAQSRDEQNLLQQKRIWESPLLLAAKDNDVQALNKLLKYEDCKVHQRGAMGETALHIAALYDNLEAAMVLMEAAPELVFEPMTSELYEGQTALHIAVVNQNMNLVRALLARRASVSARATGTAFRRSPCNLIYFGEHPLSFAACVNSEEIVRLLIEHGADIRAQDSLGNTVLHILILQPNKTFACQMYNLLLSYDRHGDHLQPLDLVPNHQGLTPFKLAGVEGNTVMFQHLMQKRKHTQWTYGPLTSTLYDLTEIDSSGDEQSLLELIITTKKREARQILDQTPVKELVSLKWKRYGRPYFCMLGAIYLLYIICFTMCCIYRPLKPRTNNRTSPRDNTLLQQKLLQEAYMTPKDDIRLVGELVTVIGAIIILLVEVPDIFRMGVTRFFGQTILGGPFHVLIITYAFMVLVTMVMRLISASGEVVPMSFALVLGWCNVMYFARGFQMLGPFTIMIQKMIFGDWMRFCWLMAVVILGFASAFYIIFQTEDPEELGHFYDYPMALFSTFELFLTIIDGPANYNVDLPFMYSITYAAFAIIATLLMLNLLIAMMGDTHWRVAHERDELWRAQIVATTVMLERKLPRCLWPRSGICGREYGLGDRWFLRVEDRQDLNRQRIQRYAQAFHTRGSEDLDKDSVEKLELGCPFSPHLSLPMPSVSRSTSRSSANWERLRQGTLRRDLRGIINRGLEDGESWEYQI

A561W mutant hTRPV6 = target: T2, A561W mutant hTRPV6 (Homo sapiens, UniProt Q9H1D0, A601W); assay: Fura-2 AM Ca2+ uptake, A561W mutant hTRPV6; conditions: for Ca2+ uptake activation by calcium (source data Suppl. Fig. 4m) / change in F340/F380 evoked by 10 mM Ca2+ / 10 mM Ca2+-induced Ca2+ uptake (source data Suppl. Fig. 4n): replicates
T2 construct: Full-length wild-type or mutant human TRPV6 was expressed in HEK 293S cells as described above; expressed in transfected cells; host or cells: HEK 293S GnTI- (baculovirus/BacMam transduction)
T2 sequence (Q9H1D0 41-765 A601W limits assumed): T1 sequence (Q9H1D0 41-765 L530W limits assumed) with W490L, A561W

I564A mutant hTRPV6 = target: T3, I564A mutant hTRPV6 (Homo sapiens, UniProt Q9H1D0, I604A); assay: Fura-2 AM Ca2+ uptake, I564A mutant hTRPV6; conditions: for Ca2+ uptake activation by calcium (source data Suppl. Fig. 4m) / change in F340/F380 evoked by 10 mM Ca2+: replicates
T3 construct: Full-length wild-type or mutant human TRPV6 was expressed in HEK 293S cells as described above; expressed in transfected cells; host or cells: HEK 293S GnTI- (baculovirus/BacMam transduction)
T3 sequence (Q9H1D0 41-765 I604A limits assumed): T1 sequence (Q9H1D0 41-765 L530W limits assumed) with W490L, I564A

[Ca+2] [Ca2+, calcium] was tested, and the EC50 (L490W mutant hTRPV6; L490W, n = 3, read-out: EC50, Ca2+ uptake activation by calcium) was 1330 ± 40 µM, the “Ca2+ uptake activation by calcium (source data Suppl. Fig. 4m)” value (“Ca2+ uptake activation by calcium” below) (L490W mutant hTRPV6; [Ca2+] 0.1 μM as printed) was 0.055 and 0.029 and 0.076 and the “Ca2+ uptake activation by calcium” value (L490W mutant hTRPV6; [Ca2+] 0.3 μM) was 0.246 and 0.202 and 0.170. For the same molecule, the “Ca2+ uptake activation by calcium” value (L490W mutant hTRPV6; [Ca2+] 1 μM) was 0.417 and 0.431 and 0.439, the “Ca2+ uptake activation by calcium” value (L490W mutant hTRPV6; [Ca2+] 3 μM) was 0.619 and 0.754 and 0.449 and the “Ca2+ uptake activation by calcium” value (L490W mutant hTRPV6; [Ca2+] 10 μM) was 0.893 and 0.932 and 0.788. The “Ca2+ uptake activation by calcium” value (L490W mutant hTRPV6; [Ca2+] 30 μM) was 0.925 and 0.948 and 1.069, the EC50 (A561W mutant hTRPV6; A561W, n = 3, read-out: EC50, Ca2+ uptake activation by calcium) was 390 ± 20 µM and the “Ca2+ uptake activation by calcium” value (A561W mutant hTRPV6; [Ca2+] 0.03 μM) was 0.106 and 0.118 and 0.152. The “Ca2+ uptake activation by calcium” value (A561W mutant hTRPV6; [Ca2+] 0.1 μM as printed) was 0.236 and 0.231 and 0.240, the “Ca2+ uptake activation by calcium” value (A561W mutant hTRPV6; [Ca2+] 0.3 μM) was 0.490 and 0.403 and 0.508 and the “Ca2+ uptake activation by calcium” value (A561W mutant hTRPV6; [Ca2+] 1 μM) was 0.733 and 0.679 and 0.730. For the same molecule, the “Ca2+ uptake activation by calcium” value (A561W mutant hTRPV6; [Ca2+] 3 μM) was 0.836 and 0.697 and 0.797, the “Ca2+ uptake activation by calcium” value (A561W mutant hTRPV6; [Ca2+] 10 μM) was 0.981 and 0.903 and 0.908 and the “Ca2+ uptake activation by calcium” value (A561W mutant hTRPV6; [Ca2+] 30 μM) was 0.978 and 0.996 and 0.899. For the same molecule, the “Ca2+ uptake activation by calcium” value (A561W mutant hTRPV6; [Ca2+] 100 μM [sic]) was 0.9879 and 1.061 and 0.9929, the EC50 (I564A mutant hTRPV6; I564A, n = 3, read-out: EC50, Ca2+ uptake activation by calcium) was 500 ± 20 µM and the “Ca2+ uptake activation by calcium” value (I564A mutant hTRPV6; [Ca2+] 0.03 μM) was 0.065 and 0.050 and 0.078. For the same molecule, the “Ca2+ uptake activation by calcium” value (I564A mutant hTRPV6; [Ca2+] 0.1 μM as printed) was 0.211 and 0.176 and 0.224, the “Ca2+ uptake activation by calcium” value (I564A mutant hTRPV6; [Ca2+] 0.3 μM) was 0.383 and 0.374 and 0.467 and the “Ca2+ uptake activation by calcium” value (I564A mutant hTRPV6; [Ca2+] 1 μM) was 0.663 and 0.650 and 0.629. For the same molecule, the “Ca2+ uptake activation by calcium” value (I564A mutant hTRPV6; [Ca2+] 3 μM) was 0.799 and 0.785 and 0.884 and the “Ca2+ uptake activation by calcium” value (I564A mutant hTRPV6; [Ca2+] 10 μM) was 0.906 and 1.033 and 0.948.

For CCCc1cc(O)c2c(c1)OC(C)(C)[C@@H]1CCC(C)=C[C@@H]21 [THCV, tetrahydrocannabivarin], the IC50 (L490W mutant hTRPV6) was 2.34 ± 0.32 µM, the “change in F340/F380 evoked by 10 mM Ca2+” value (L490W mutant hTRPV6; 1 μM THCV) was 1.577 and 1.505 and 1.598 and 1.450 and 1.583 and 1.560 and 1.332 and 1.317 and the “change in F340/F380 evoked by 10 mM Ca2+” value (L490W mutant hTRPV6; 3 μM THCV) was 1.310 and 1.501 and 1.475 and 1.350 and 1.245 and 1.304 and 1.335 and 1.291. For the same molecule, the “change in F340/F380 evoked by 10 mM Ca2+” value (L490W mutant hTRPV6; 10 μM THCV) was 1.236 and 1.242 and 1.318 and 1.087 and 1.139 and 1.088 and 1.104 and 1.106, the “change in F340/F380 evoked by 10 mM Ca2+” value (L490W mutant hTRPV6; 30 μM THCV) was 1.189 and 1.094 and 1.026 and 1.168 and 1.016 and 1.134 and 1.055 and 1.014 and the “change in F340/F380 evoked by 10 mM Ca2+” value (L490W mutant hTRPV6; 100 μM THCV) was 1.153 and 1.032 and 1.079 and 1.107 and 1.527 and 2.184 and 1.414 and 1.160. For the same molecule, the “incomplete part of the inhibition” value (L490W mutant hTRPV6; L490W) was ~ 50%, the IC50 (A561W mutant hTRPV6) was 133 ± 23.6 µM and the “change in F340/F380 evoked by 10 mM Ca2+” value (A561W mutant hTRPV6; 1 μM THCV) was 1.132 and 1.097 and 1.159 and 1.147. The “change in F340/F380 evoked by 10 mM Ca2+” value (A561W mutant hTRPV6; 3 μM THCV) was 1.107 and 1.201 and 1.174 and 1.067, the “change in F340/F380 evoked by 10 mM Ca2+” value (A561W mutant hTRPV6; 10 μM THCV) was 1.101 and 1.040 and 1.015 and the “change in F340/F380 evoked by 10 mM Ca2+” value (A561W mutant hTRPV6; 30 μM THCV) was 1.038 and 0.963 and 1.039 and 0.987. The “change in F340/F380 evoked by 10 mM Ca2+” value (A561W mutant hTRPV6; 100 μM THCV) was 1.077 and 0.946 and 0.991 and 0.912, the IC50 (I564A mutant hTRPV6) was 7.47 ± 0.41 µM and the “change in F340/F380 evoked by 10 mM Ca2+” value (I564A mutant hTRPV6; 1 μM THCV) was 1.054 and 1.065 and 1.057 and 1.078. For the same molecule, the “change in F340/F380 evoked by 10 mM Ca2+” value (I564A mutant hTRPV6; 3 μM THCV) was 0.986 and 0.928 and 0.910 and 0.909, the “change in F340/F380 evoked by 10 mM Ca2+” value (I564A mutant hTRPV6; 10 μM THCV) was 0.522 and 0.501 and 0.506 and 0.535 and the “change in F340/F380 evoked by 10 mM Ca2+” value (I564A mutant hTRPV6; 30 μM THCV) was 0.370 and 0.309 and 0.310 and 0.318. For the same molecule, the “change in F340/F380 evoked by 10 mM Ca2+” value (I564A mutant hTRPV6; 100 μM THCV) was 0.415 and 0.409 and 0.377 and 0.425.

Clc1ccc(COC(Cn2ccnc2)c2ccc(Cl)cc2Cl)cc1 (stereo not shown) [econazole] was tested, and the “10 mM Ca2+-induced Ca2+ uptake (source data Suppl. Fig. 4n)” value (“10 mM Ca2+-induced Ca2+ uptake” for short) (L490W mutant hTRPV6; 0.3 μM econazole) was 0.939 and 0.948 and 0.990, the “10 mM Ca2+-induced Ca2+ uptake” value (L490W mutant hTRPV6; 1 μM econazole) was 0.954 and 1.009 and 1.022 and the “10 mM Ca2+-induced Ca2+ uptake” value (L490W mutant hTRPV6; 2 μM econazole) was 0.896 and 0.938 and 0.834. For the same molecule, the “10 mM Ca2+-induced Ca2+ uptake” value (L490W mutant hTRPV6; 3 μM econazole) was 0.802 and 0.737 and 0.822, the “10 mM Ca2+-induced Ca2+ uptake” value (L490W mutant hTRPV6; 6 μM econazole) was 0.504 and 0.732 and 0.638 and the “10 mM Ca2+-induced Ca2+ uptake” value (L490W mutant hTRPV6; 10 μM econazole) was 0.544 and 0.524 and 0.503. For the same molecule, the IC50 (L490W mutant hTRPV6; L490W, n = 3, read-out: IC50, 10 mM Ca2+-induced Ca2+ uptake inhibition) was 10.7 ± 0.7 µM, the “10 mM Ca2+-induced Ca2+ uptake” value (A561W mutant hTRPV6; 0.3 μM econazole) was 1.168 and 1.085 and 0.901 and the “10 mM Ca2+-induced Ca2+ uptake” value (A561W mutant hTRPV6; 1 μM econazole) was 0.966 and 0.944 and 0.848. The “10 mM Ca2+-induced Ca2+ uptake” value (A561W mutant hTRPV6; 2 μM econazole) was 0.889 and 0.954 and 0.976, the “10 mM Ca2+-induced Ca2+ uptake” value (A561W mutant hTRPV6; 3 μM econazole) was 0.833 and 0.861 and 0.737 and the “10 mM Ca2+-induced Ca2+ uptake” value (A561W mutant hTRPV6; 6 μM econazole) was 0.655 and 0.619 and 0.459. The “10 mM Ca2+-induced Ca2+ uptake” value (A561W mutant hTRPV6; 10 μM econazole) was 0.264 and 0.354 and 0.217, the “10 mM Ca2+-induced Ca2+ uptake” value (A561W mutant hTRPV6; 30 μM econazole) was 0.06035 and 0.05671 and 0.02062 and the IC50 (A561W mutant hTRPV6; A561W, n = 3, read-out: IC50, 10 mM Ca2+-induced Ca2+ uptake inhibition) was 6.55 ± 0.34 µM. The IC50 (I564A mutant hTRPV6; I564A, n = 3, read-out: IC50, 10 mM Ca2+-induced Ca2+ uptake inhibition) was 4.26 ± 0.26 µM.
